In patent publication US12384753B2, “17-beta-hydroxysteroid dehydrogenase type 13 inhibitors and methods of use thereof” (Enanta Pharmaceuticals, Inc., priority 2021, dated 2025):

Biological target: Recombinant human HSD17B13 (Homo sapiens (Human), UniProt Q7Z5P4)
Assay: HSD17B13 rapid-fire mass spectrometry assay (RF/MS assay)
Format: biochemical
Settings: inhibition of HSD17B13; LTB4 10 μM, NAD+ 0.5 mM, RT 3 h; IC50 ranges A-E
Excerpt: HSD17B13 rapid-fire mass spectrometry assay (RF/MS assay). Recombinant human HSD17B13 was expressed and purified from sf9 cells at Charles River Labs (Saffron Walden, UK). Leukotriene B4 (Catalog #71160-24-2) and 12-oxoleukotriene B4 (Catalog #20140) were purchased from Cayman Chemicals (Ann Arbor, Michigan.). NAD+ (Catalog #N8285), BSA (Catalog #A7030), DMSO (Catalog #D2650), and Tween-20 (Catalog #11332465001) were purchased from Sigma (St. Louis, MO). Formic acid (Catalog #28905) was from ThermoFisher Scientific and 384 deep well PP microplates (Catalog #784261) were from Greiner Bio-One. In a typical IC50 assay performed in a 384w PP microplate, test compounds (0-100 μM) were incubated with HSD17B13 (80 nM), LTB4 (10 μM), and NAD^+ (0.5 mM) in 10 μL assay buffer (20 mM Tris (pH 7.5), BSA (0.005%), and Tween-20 (0.01%)) at RT for 3 h. The assays were quenched by adding 20 μL of 0.15% aqueous formic acid and the plates were frozen at −80° C. RF/MS analysis was performed at PureHoney Technologies (Billerica, MA) on a RapidFire RF300 system (Agilent Technologies, Inc.) coupled to an API 4000 triple quadrupole mass spectrometer (Sciex) equipped with Agilent RapidFire cartridge type A (C4). The mobile phase was 0.09% formic acid and 0.01% trifluoracetic acid in water (Buffer A) and 0.09% formic acid and 0.01% trifluoracetic acid in 80% aqueous acetonitrile (Buffer B). The RapidFire method conditions were the following: 250 ms aspirate, 3000 ms load/desalt, 4000 ms elute, and 500 ms re-equilibrate. RF-MS/MS was performed in negative polarity (−4500 V), the source temperature was 650° C., and gas 1 and gas 2 settings for nitrogen were set to 50. The curtain gas and collision gas were also nitrogen and were set to 20 and 12, respectively. Leukotriene B4 (335.3) and 12-oxoLeukotriene B4 (333.3) SRM transitions were optimized with Discovery Quant software and extracted ion counts for these analytes were determined.
Data Analysis. HSD17B13 enzyme activity was measured as percent conversion of extracted ion counts and normalized to high and low controls to determine percent residual activity at various concentrations of test compounds. Data were fitted to normalized activity (variable slope) versus concentration fit in GraphPad Prism 7 to determine IC50. All experiments were run in duplicates.
By using above method, the inhibition of HSD17B13 was evaluated for the compounds of Formula (I). IC50 ranges are as follows: A=IC50<0.100 μM; B=0.100 μM<IC50<0.500 μM; C=0.500 μM<IC50<1 μM; D=1 μM<IC50<100 μM; E=IC50>100 μM

Recombinant human HSD17B13, sequence (Q7Z5P4 20-300): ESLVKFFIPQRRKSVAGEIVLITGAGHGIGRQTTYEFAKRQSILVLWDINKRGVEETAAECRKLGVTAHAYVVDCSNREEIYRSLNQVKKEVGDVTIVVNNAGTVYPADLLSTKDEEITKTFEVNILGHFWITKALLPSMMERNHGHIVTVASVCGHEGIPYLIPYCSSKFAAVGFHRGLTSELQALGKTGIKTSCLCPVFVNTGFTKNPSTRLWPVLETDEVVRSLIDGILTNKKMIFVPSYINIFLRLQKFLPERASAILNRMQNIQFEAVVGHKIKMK

| SMILES | IC50 [nM] |
| --- | --- |
| COc1cc(C(=O)O)ccc1NS(=O)(=O)c1csc(-c2ccc3ccccc3c2)n1 [Example 130] | 500 to 1000 |
| CCOC(=O)c1cc2c(c(OC)c1)N(S(=O)(=O)c1csc(-c3ccc(F)cc3)n1)CCC2 [Example 131] | 1000 to 100000 |
| COc1cc(C(=O)O)cc2c1N(S(=O)(=O)c1cnc(-c3ccc(F)cc3)s1)CCC2 [Example 132] | 1000 to 100000 |
| O=C(O)c1ccc2c(c1)CCCCN2S(=O)(=O)c1cnc(-c2ccc(F)cc2)s1 [Example 133] | 1000 to 100000 |
| COc1cc(C(=O)O)ccc1NS(=O)(=O)c1ccc(Oc2ccccc2OC)cc1 [Example 134] | 500 to 1000 |
| COc1cc(-c2nnn[nH]2)ccc1NS(=O)(=O)c1cnc(-c2ccc(F)cc2)s1 [Example 135] | 1000 to 100000 |
| COc1cc(C(=O)O)ccc1NS(=O)(=O)c1csc2ccccc12 [Example 136] | 500 to 1000 |
| COc1cc(C(=O)O)ccc1NS(=O)(=O)c1c[nH]c2ccccc12 [Example 137] | 1000 to 100000 |
| COc1cc(C(=O)O)ccc1NS(=O)(=O)c1coc2ccccc12 [Example 138] | 1000 to 100000 |
| COc1cc(C(=O)O)ccc1NS(=O)(=O)c1ccc2occc2c1 [Example 139] | 1000 to 100000 |
| COc1cc(C(=O)O)ccc1NS(=O)(=O)c1csc(-c2cccnc2)n1 [Example 143] | 1000 to 100000 |
| COc1cc(C(=O)O)ccc1NS(=O)(=O)c1ccc(-c2ccccc2)cc1 [Example 144] | 100 to 500 |
| COc1cc(C(=O)O)ccc1NS(=O)(=O)c1cccc(-c2ccccc2)c1 [Example 145] | 1000 to 100000 |
| COc1cc(C(=O)O)ccc1NS(=O)(=O)c1ccc(-c2ccccc2)s1 [Example 149] | 500 to 1000 |
| COc1cc(C(=O)O)ccc1NS(=O)(=O)c1csc(-c2cccc3ccccc23)n1 [Example 151] | 500 to 1000 |
| COc1cc(C(=O)O)ccc1NS(=O)(=O)c1csc(-c2c(C)ccc3ccccc23)n1 [Example 152] | 100 to 500 |
| COc1cc(C(=O)O)ccc1NS(=O)(=O)c1csc(-c2c(F)ccc3ccccc23)n1 [Example 153] | 100 to 500 |
| COc1cc(C(=O)O)ccc1NS(=O)(=O)c1csc(-c2ccc(OC)c3ccccc23)n1 [Example 154] | 500 to 1000 |
| COc1cc(C(=O)O)ccc1NS(=O)(=O)c1csc(-c2cccc3ccncc23)n1 [Example 155] | 1000 to 100000 |
| COc1cc(C(=O)O)ccc1NS(=O)(=O)c1csc(-c2cccc3c2CCCC3)n1 [Example 157] | 100 to 500 |
| COc1cc(C(=O)O)ccc1NS(=O)(=O)c1cnc(-c2ccccc2)s1 [Example 158] | 100 to 500 |
| O=C(O)c1ccc(NS(=O)(=O)c2cnc(-c3ccccc3)s2)c(O)c1 [Example 160] | 100 to 500 |

| SMILES | IC50 [nM] |
| --- | --- |
| COc1cc(C(=O)O)ccc1NS(=O)(=O)c1cnc(-c2ccc(F)cc2)s1 [Example 161] | 100 to 500 |
| COc1cc(C(=O)O)ccc1NS(=O)(=O)c1ccc2ccc(S(=O)(=O)Nc3ccc(C(=O)O)cc3OC)cc2c1 [Example 162] | 100 to 500 |
| COc1cc(C(=O)O)ccc1NS(=O)(=O)c1csc(NCc2ccccc2)n1 [Example 164] | 1000 to 100000 |
| COc1cc(C(=O)O)ccc1NS(=O)(=O)c1csc(NCCc2ccccc2)n1 [Example 165] | 1000 to 100000 |
| COc1cc(C(=O)O)ccc1NS(=O)(=O)c1csc(N2CCOCC2)n1 [Example 166] | 1000 to 100000 |
| COc1cc(C(=O)O)ccc1NS(=O)(=O)c1csc(/C=C/c2ccccc2)n1 [Example 167] | 100 to 500 |
| COc1cc(C(=O)O)ccc1NS(=O)(=O)c1ccc(C#Cc2ccccc2)s1 [Example 168] | 100 to 500 |
| O=C(O)c1ccc(NS(=O)(=O)c2cccc(S(=O)(=O)Nc3ccc(C(=O)O)cc3O)c2)c(O)c1 [Example 170] | 100 to 500 |
| O=C(O)c1ccc(NS(=O)(=O)c2ccc3ccc(S(=O)(=O)Nc4ccc(C(=O)O)cc4O)cc3c2)c(O)c1 [Example 171] | < 100 |
| O=C(O)c1ccc(NS(=O)(=O)c2ccc(Oc3ccc(S(=O)(=O)Nc4ccc(C(=O)O)cc4O)cc3)cc2)c(O)c1 [Example 172] | 100 to 500 |
| O=C(O)c1ccc(NS(=O)(=O)c2cnc(-c3ccc(F)cc3)s2)c(C(F)F)c1 [Example 173] | 1000 to 100000 |
| COc1cc(C(=O)O)ccc1NS(=O)(=O)c1ccc(-c2ccc(F)cc2)s1 [Example 174] | < 100 |
| COc1cc(C(=O)O)ccc1NS(=O)(=O)c1ccc(-c2ccc(C)cc2)s1 [Example 175] | 100 to 500 |
| COc1cc(C(=O)O)ccc1NS(=O)(=O)c1ccc(-c2ccc(C(F)(F)F)cc2)s1 [Example 178] | 100 to 500 |
| COc1ccc(-c2ccc(S(=O)(=O)Nc3ccc(C(=O)O)cc3OC)s2)cc1 [Example 179] | 100 to 500 |
| COc1cc(C(=O)O)ccc1NS(=O)(=O)c1ccc(-c2ccc(O)cc2)s1 [Example 180] | 100 to 500 |
| COc1cc(C(=O)O)ccc1NS(=O)(=O)c1csc(CCc2ccccc2)n1 [Example 181] | 1000 to 100000 |
| COc1cc(C(=O)O)ccc1NS(=O)(=O)c1ccc(-c2cccc(O)c2)s1 [Example 191] | < 100 |
| COc1cc(C(=O)O)ccc1NS(=O)(=O)c1ccc(-c2ccccc2O)s1 [Example 192] | 1000 to 100000 |
| COc1cc(C(=O)O)ccc1NS(=O)(=O)c1ccc(-c2ccccc2OC)s1 [Example 193] | 100 to 500 |
| COc1cc(C(=O)O)ccc1NS(=O)(=O)c1ccc(-c2ccccc2C)s1 [Example 194] | 100 to 500 |

Results, then the molecule that gave them:

| IC50 [nM] | SMILES |
| --- | --- |
| 1000 to 100000 | COc1cc(C(=O)O)ccc1NS(=O)(=O)c1csc(-c2cccc(C#N)c2)n1 [Example 129] |
| 500 to 1000 | COc1cccc(-c2nc(S(=O)(=O)Nc3ccc(C(=O)O)cc3OC)cs2)c1 [Example 140] |
| 500 to 1000 | COc1cc(C(=O)O)ccc1NS(=O)(=O)c1csc(-c2ccccc2OC)n1 [Example 141] |
| 500 to 1000 | COc1cc(C(=O)O)ccc1NS(=O)(=O)c1csc(-c2ccccc2O)n1 [Example 142] |
| 100 to 500 | COc1cc(C(=O)O)ccc1NS(=O)(=O)c1csc(-c2cccc(O)c2)n1 [Example 146] |
| 1000 to 100000 | COc1cc(C(=O)O)ccc1NS(=O)(=O)c1csc(-c2ccccn2)n1 [Example 147] |
| 1000 to 100000 | COc1cc(C(=O)O)ccc1NS(=O)(=O)c1csc(-c2ccc(C#N)cc2)n1 [Example 148] |
| 100 to 500 | COc1cc(C(=O)O)ccc1NS(=O)(=O)c1csc(C#Cc2ccccc2)n1 [Example 150] |
| 100 to 500 | COc1cc(C(=O)O)ccc1NS(=O)(=O)c1csc(-c2cccc(C)c2C)n1 [Example 156] |
| 1000 to 100000 | COc1cc(C(=O)O)ccc1NS(=O)(=O)c1csc(-c2ccccc2C#N)n1 [Example 159] |
| 1000 to 100000 | COc1cc(C(=O)O)ccc1NS(=O)(=O)c1csc(Nc2ccccc2)n1 [Example 163] |
| 100 to 500 | COc1cc(C(=O)O)ccc1NS(=O)(=O)c1cnc(C#Cc2ccccc2)s1 [Example 169] |
| 100 to 500 | COc1cc(C(=O)O)ccc1NS(=O)(=O)c1csc(C#Cc2ccc(C)cc2)n1 [Example 176, 3-methoxy-4-((2-(p-tolylethynyl)thiazole)-4-sulfonamido)benzoic acid] |
| 100 to 500 | COc1ccc(C#Cc2nc(S(=O)(=O)Nc3ccc(C(=O)O)cc3OC)cs2)cc1 [Example 177] |
| < 100 | COc1cc(C(=O)O)ccc1NS(=O)(=O)c1csc(C#Cc2ccc(C(F)(F)F)cc2)n1 [Example 182] |
| 1000 to 100000 | COc1cc(C(=O)O)ccc1NS(=O)(=O)c1csc(C#Cc2ccc(O)cc2)n1 [Example 183] |
| 100 to 500 | COc1cc(C(=O)O)ccc1NS(=O)(=O)c1csc(C#Cc2ccc(F)cc2)n1 [Example 184] |
| 500 to 1000 | COc1cc(C(=O)O)ccc1NS(=O)(=O)c1csc(C#Cc2ccc(Cl)cc2)n1 [Example 185] |
| < 100 | COc1cc(C(=O)O)ccc1NS(=O)(=O)c1csc(C#Cc2cccc(C)c2)n1 [Example 186] |
| < 100 | COc1cc(C(=O)O)ccc1NS(=O)(=O)c1csc(C#Cc2ccccc2C)n1 [Example 187] |
| < 100 | COc1cc(C(=O)O)ccc1NS(=O)(=O)c1csc(C#Cc2ccc(C(C)(C)C)cc2)n1 [Example 188] |
| < 100 | COc1cc(C(=O)O)ccc1NS(=O)(=O)c1csc(C#Cc2ccc(C(C)C)cc2)n1 [Example 189] |
| < 100 | COc1cccc(C#Cc2nc(S(=O)(=O)Nc3ccc(C(=O)O)cc3OC)cs2)c1 [Example 190] |
